The results in this text go back to patent US7718653B2, “Pyrimidine derivatives for inhibiting Eph receptors” (AstraZeneca AB, priority 2007, dated 2010).

The target in this experiment is T1, recombinant EphB4 (Homo sapiens, UniProt P54760).
T1 construct: amino acids 563-987; Swiss-Prot Acc; No. P54760; purchased ProQinase GmbH 0178-0000-3
T1 sequence (P54760 563-987): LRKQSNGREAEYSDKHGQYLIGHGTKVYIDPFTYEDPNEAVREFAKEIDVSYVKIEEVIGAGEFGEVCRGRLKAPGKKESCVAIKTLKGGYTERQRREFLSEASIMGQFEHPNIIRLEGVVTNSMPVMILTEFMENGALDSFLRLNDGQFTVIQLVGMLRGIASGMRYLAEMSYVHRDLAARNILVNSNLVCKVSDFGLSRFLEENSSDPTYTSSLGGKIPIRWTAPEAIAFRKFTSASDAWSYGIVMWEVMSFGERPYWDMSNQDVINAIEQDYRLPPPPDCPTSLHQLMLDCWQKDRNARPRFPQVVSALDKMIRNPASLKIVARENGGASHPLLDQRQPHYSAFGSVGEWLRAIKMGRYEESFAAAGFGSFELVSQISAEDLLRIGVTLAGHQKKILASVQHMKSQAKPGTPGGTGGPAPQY
Put plainly: In vitro EphB4 enzyme assay (Alphascreen, phosphorylation of biotin-poly-GAT). It is filed as biochemical. To be noted: method of compound preparation not stated; read-out: IC50 in assay A. The protocol: A) In vitro EphB4 Enzyme Assay
This assay detects inhibitors of EphB4-mediated phosphorylation of a polypeptide substrate using Alphascreen™ luminescence detection technology. Briefly, recombinant EphB4 was incubated with a biotinylated-polypeptide substrate (biotin-poly-GAT) in presence of magnesium-ATP. The reaction was stopped by addition of EDTA, together with streptavidin-coated donor beads which bind the biotin-substrate containing any phosphorylated tyrosine residues. Anti-phosphotyrosine antibodies present on acceptor beads bind to phosphorylated substrate, thus bringing the donor & acceptor beads into close proximity. Subsequent excitation of the donor beads at 680 nm generated singlet oxygen species that interact with a chemiluminescer on the acceptor beads, leading to light emission at 520-620 nm. The signal intensity is directly proportional to the level of substrate phosphorylation and thus inhibition is measured by a decrease in signal.
Aqueous Compound Preparation:
Acoustic Compound Preparation:
To ensure that each well contained a total of 120 nl DMSO the wells were all backfilled as required. […] The test range of compounds was 100× the required final concentration.
Assay plates were then incubated at room temperature for 1 hour.
For assays using compounds prepared via acoustic dispensing, the assay mix was adjusted such that the final assay volume of 12 ul contained the same concentration of reagent as 10 ul of assay mix used when aqueous compounds were tested.
The plates were sealed under natural lighting conditions, wrapped in aluminium foil and incubated in the dark for a further 20 hours.
The resulting assay signal was determined on the Perkin Elmer EnVision plate reader. The minimum value was subtracted from all values, and the signal plotted against compound concentration to generate IC50 data. The method used to generate the compound dilutions was recorded with the IC50 value in the database.

Regarding `c1cc(Nc2ccnc(Nc3cc(N4CCOCC4)nc(N4CCOCC4)c3)n2)c2cn[nH]c2c1` [Example 3, N2-(2,6-dimorpholinopyridin-4-yl)-N4-(1H-indazol-4-yl)pyrimidine-2,4-diamine], the IC50 was determined as 243 nM.
